Measured values: ChEMBL document CHEMBL4651402, “Screening of ~5500 FDA-approved drugs and clinical candidates for anti-SARS-CoV-2 activity” (2021)
pIC50: −log10 of the molar value.

Tested on: SARS-CoV-2
Assay: microbe, parasite or virus in culture
Details: Severe acute respiratory syndrome coronavirus 2, Vero C1008, 48 h; for IC50: read-out: pIC50 (converted)

CCN(CC)C(=O)c1cccc(C)c1 [DIETHYLTOLUAMIDE]
pIC50: < 4.70 | IC50: > 20 µM

OCCN(CCO)c1nc(-c2ccccc2)c(-c2ccccc2)o1 [DITAZOLE]
pIC50: < 4.70 | IC50: > 20 µM

CCCCOc1ccc(C(=O)CCN2CCCCC2)cc1 [DYCLONINE]
pIC50: < 4.70 | IC50: > 20 µM

CN1CC[C@@]2(C)c3cc(O)ccc3N(C)[C@H]12
pIC50: < 4.70 | IC50: > 20 µM

COc1cccc(-c2cc(F)c(Nc3ncccc3C(=O)O)c(F)c2)c1 [ASLAN-003]
pIC50: < 4.70 | IC50: > 20 µM

CC1C(=O)CC[C@@H]2C1(C)CC[C@H]1C2(C)CCC2(C)C3CC(C)(C)CCC3(C)CCC12C (stereo not given in full)
pIC50: < 4.70 | IC50: > 20 µM

C=CCC1(C(C)CCC)C(=O)NC(=O)NC1=O (stereo not given) [SECOBARBITAL]
pIC50: < 4.70 | IC50: > 20 µM

CN1CCC(=C2c3ccccc3CCn3c(C=O)cnc32)CC1 [ALCAFTADINE]
pIC50: < 4.70 | IC50: > 20 µM

CCCn1cnc2c1c(=O)n(CCCCC(C)=O)c(=O)n2C [PROPENTOFYLLINE]
pIC50: < 4.70 | IC50: > 20 µM

CNc1c2c(nn1C)CCCC2 [TETRYDAMINE]
pIC50: < 4.70 | IC50: > 20 µM

COc1ccc2c(c1)CCC1C2CCC2(C)C(O)CCC12 (stereo not given)
pIC50: < 4.70 | IC50: > 20 µM

CCC(CCC(C)C1CCC2C3CC[C@H]4CC(O)CCC4(C)C3CCC12C)C(C)C (stereo not given in full)
pIC50: < 4.70 | IC50: > 20 µM

CC(=O)NC(=O)c1ccccc1O [SALACETAMIDE]
pIC50: < 4.70 | IC50: > 20 µM

CCc1nn(CCO)c(CC)c1Oc1cc(C#N)cc(C#N)c1 [LERSIVIRINE]
pIC50: < 4.70 | IC50: > 20 µM

NC(=O)c1ccc([N+](=O)[O-])cc1Cl [AKLOMIDE]
pIC50: < 4.70 | IC50: > 20 µM

O=[N+]([O-])O[C@@H]1CO[C@H]2[C@@H]1OC[C@@H]2O [ISOSORBIDE MONONITRATE]
pIC50: < 4.70 | IC50: > 20 µM

CC(CNS(=O)(=O)C(C)C)c1ccc(NC(=O)c2cc(F)cc(F)c2)cc1 (stereo not given)
pIC50: < 4.70 | IC50: > 20 µM

O=C1CCC(N2C(=O)c3ccccc3C2=O)C(=O)N1 (stereo not given) [THALIDOMIDE]
pIC50: < 4.70 | IC50: > 20 µM

N[C@H](Cc1ccc(F)cc1)C(=O)O
pIC50: < 4.70 | IC50: > 20 µM

Cc1ccc(-c2nc(CN3CCN(C(c4ccccc4)c4ccccc4)CC3)c(C)[nH]2)cc1 [LIFARIZINE]
pIC50: < 4.70 | IC50: > 20 µM

CC(C)(C)[C@@H](CO)NC(=O)c1nn(-c2c[n+]([O-])ccn2)c2c1C[C@@H]1C[C@H]21 [OLORINAB]
pIC50: < 4.70 | IC50: > 20 µM

C[C@@H]1C[C@H]2[C@@H]3C[C@H](F)C4=CC(=O)C=C[C@]4(C)[C@@]3(F)[C@@H](O)C[C@]2(C)[C@@]1(O)C(=O)CO [FLUMETHASONE]
pIC50: < 4.70 | IC50: > 20 µM

O=c1c(-c2ccc(O)cc2)coc2cc(O)cc(O)c12 [GENISTEIN]
pIC50: < 4.70 | IC50: > 20 µM

CC12CCC(=O)C=C1CCC1C2C(O)CC2(C)C1CCC2(O)C(=O)COP(=O)(O)O (stereo not given)
pIC50: < 4.70 | IC50: > 20 µM

COc1ccc2c3c1O[C@H]1[C@@H](O)C=C[C@@]4(O)[C@@H](C2)N(C)CC[C@]314
pIC50: < 4.70 | IC50: > 20 µM

CC(C)=CCC[C@@](C)(O)[C@H]1CC=C(C)CC1
pIC50: < 4.70 | IC50: > 20 µM

COc1ccc2[nH]c([S+]([O-])Cc3ncc(C)c(OC)c3C)nc2n1 (stereo not given) [TENATOPRAZOLE]
pIC50: < 4.70 | IC50: > 20 µM

COc1cc(C)[nH]c(=O)c1CNC(=O)c1c(C)n([C@H](C)C2CCN(CC(F)(F)F)CC2)c2ccccc12 [CPI-1205]
pIC50: < 4.70 | IC50: > 20 µM

CCC1(CC)C(=O)C=CNC1=O [PYRITHYLDIONE]
pIC50: < 4.70 | IC50: > 20 µM

CCC1CCCC(OC2CCC(N(C)C)C(C)O2)C(C)C(=O)C2=CC3C(C=C(C)C4CC(OC5OC(C)C(OC)C(OC)C5OC)CC43)C2CC(=O)O1.CCC1CCCC(OC2CCC(N(C)C)C(C)O2)C(C)C(=O)C2=CC3C(C=CC4CC(OC5OC(C)C(OC)C(OC)C5OC)CC43)C2CC(=O)O1 (stereo not given)
pIC50: < 4.70 | IC50: > 20 µM

CC1(C)S[C@@H]2[C@H](NC(=O)C3(N)CCCCC3)C(=O)N2[C@H]1C(=O)O [CYCLACILLIN]
pIC50: < 4.70 | IC50: > 20 µM

COc1ccc2c(c1)C=C1Cn3c-2c(C2CCCCC2)c2ccc(cc23)C(=O)NS(=O)(=O)N(C)CCOCCN(C)C1=O [TMC-647055]
pIC50: < 4.70 | IC50: > 20 µM

O=C(NCNC(=O)NC1C(=O)NC(=O)N1CO)NC1C(=O)NC(=O)N1CO (stereo not given)
pIC50: < 4.70 | IC50: > 20 µM

COc1ccc(C(=O)CC(=O)c2ccc(C(C)(C)C)cc2)cc1 [AVOBENZONE]
pIC50: < 4.70 | IC50: > 20 µM

NC1CCCCC1N (stereo not given)
pIC50: < 4.70 | IC50: > 20 µM

O=C(Nc1cc(Cl)cc(Cl)c1O)c1c(O)c(Cl)cc(Cl)c1Cl [OXYCLOZANIDE]
pIC50: < 4.70 | IC50: > 20 µM

COc1ccc2c(c1)c(CC(=O)OCC(=O)O)c(C)n2C(=O)c1ccc(Cl)cc1 [ACEMETACIN]
pIC50: < 4.70 | IC50: > 20 µM

O=C(Cc1ccc(-c2ccccc2)cc1)Nc1ccccn1 [DIFENPIRAMIDE]
pIC50: < 4.70 | IC50: > 20 µM

CC(C)c1cccc(C(C)C)c1O [PROPOFOL]
pIC50: < 4.70 | IC50: > 20 µM

CC(C)(N)C(=O)N[C@H](COCc1ccccc1)C(=O)N1CCC2(CC1)CN(S(C)(=O)=O)c1ccccc12 [IBUTAMOREN]
pIC50: < 4.70 | IC50: > 20 µM

COC1=CC(=O)C=C(OC)C1=O [2,6-DIMETHOXYQUINONE]
pIC50: < 4.70 | IC50: > 20 µM

CCC(CC)C(c1ccc(Nc2nc3ccccc3s2)cc1)n1cncn1 (racemic) [TALAROZOLE]
pIC50: < 4.70 | IC50: > 20 µM

O=C(Nc1ccccc1F)N[C@@H]1N=C(c2ccccc2)c2ccccc2NC1=O
pIC50: < 4.70 | IC50: > 20 µM

CC(C)(C)C(=O)OCOC(=O)[C@@H]1N2C(=O)[C@@H](/N=C/N3CCCCCC3)[C@H]2SC1(C)C [AMDINOCILLIN PIVOXIL]
pIC50: < 4.70 | IC50: > 20 µM

O=c1oc2cc(O)ccc2s1 [TIOXOLONE]
pIC50: < 4.70 | IC50: > 20 µM

CCC[C@@H]1CC(=O)N([C@@H](CC)C(N)=O)C1 [BRIVARACETAM]
pIC50: < 4.70 | IC50: > 20 µM

Cc1cn([C@@H]2C[C@H](O)[C@@H](CO)O2)c(=O)[nH]c1=O
pIC50: < 4.70 | IC50: > 20 µM

CN(C)[C@@H](c1cccnc1)C1COCOC1 [DOXPICOMINE]
pIC50: < 4.70 | IC50: > 20 µM

COc1cc(C(=O)O)ccc1NC(=O)[C@@H]1N[C@@H](CC(C)(C)C)[C@](C#N)(c2ccc(Cl)cc2F)[C@H]1c1cccc(Cl)c1F [IDASANUTLIN]
pIC50: < 4.70 | IC50: > 20 µM

COc1cc(C)nc(-n2nc(C)cc2OC)n1 [EPIRIZOLE]
pIC50: < 4.70 | IC50: > 20 µM

CC(=O)Nc1ccc(CC(=O)O)cc1 [ACTARIT]
pIC50: < 4.70 | IC50: > 20 µM

O=C1CC[C@H](N2Cc3c(OCc4ccc(CN5CCOCC5)cc4)cccc3C2=O)C(=O)N1 [IBERDOMIDE]
pIC50: < 4.70 | IC50: > 20 µM

NC(=O)CC[C@H](NC(=O)Cc1ccccc1)C(=O)O
pIC50: < 4.70 | IC50: > 20 µM

O=C(O)c1ccccc1Nc1ccccc1 [FENAMIC ACID]
pIC50: < 4.70 | IC50: > 20 µM

O=c1[nH]cnc2nc[nH]c12 [HYPOXANTHINE]
pIC50: < 4.70 | IC50: > 20 µM
